In patent US8809362B2, “Anticancer agent sensitivity-determining marker” (priority 2009, dated 2014):

Assays:
LS174T = experiment: MTS assay sensitivity (IC50) to SN-38, LS174T (Example 3); format: cell-based, human; details: 72 hours exposure, lowest IC50 of eight lines
Procedure: (§1) Cancer cells of each cell line were exposed to SN-38 (0 nmol/L to 5 μmol/L) for 72 hours. After exposure to SN-38, cell viability was determined by means of an MTS assay (CellTiter96™AQueous One Solution Cell Proliferation Assay, Promega). IC50 (concentration of SN-38 at which 50% of cells in an SN-38-non-treated well are inhibited) was calculated for each cell line and employed as the sensitivity of the cell line to SN-38. Sensitivity determination of each cell line was performed in triplicate and twice.
(§2) The experiment procedure of Example 2 was repeated twice. The data obtained in the experiments (three times in total) were further analyzed. Peaks detected through CE-TOFMS in the tested cell samples were compared with the data of 278 standard samples whose m/z values and migration times were already known, whereby 146 metabolites were identified in any of the tested cell samples. The 146 metabolites were investigated through single regression analysis in terms of the correlation between the intracellular content (in eight human colorectal cancer cell lines) and Log[IC50] of each cell line.
(§3) The sensitivity of each of eight human colorectal cancer cell lines (HCT-116, HT-29, HCT-15, Lovo, LS174T, SW480, SW620, and WiDr) was evaluated by employing IC50 calculated through MTS assay as an index.

HT-29 cells = experiment: MTS assay cell viability under SN-38 exposure, HT-29; format: cell-based, human; details: HT-29, 50 nmol/L SN-38, exposure for 72 hours
Procedure: (§4) Two human colorectal cancer cell lines (HCT-116 and HT-29) employed were obtained from Kabushiki Kaisha Yakult Honsha.
(§5) Cell culturing was performed by means of a φ100 mm/Tissue Culture Dish (IWAKI) with a medium (Doulbecco's modified Eagle's Medium, 10% fetal bovine serum) at 37° C. under 5% CO2.
(§6) SN-38 powder was obtained from Kabushiki Kaisha Yakult Honsha. SN-38 was dissolved in DMSO, and, before use, the solution was diluted so that the DMSO concentration of each of the culture media employed in experiments was adjusted to 0.1% or less.
(§7) Cells of two colorectal cancer cell lines (HCT-116 and HT-29) were exposed to 50 nmol/L SN-38, and 24, 48, and 72 hours after drug exposure, cell viability was determined by means of an MTS assay (CellTiter96™AQueous One Solution Cell Proliferation Assay, Promega). Sensitivity evaluation of each cell line was performed in triplicate with three different passage numbers of cells, and the mean value and standard deviation were calculated.

WiDr = experiment: MTS assay sensitivity (IC50) to SN-38, WiDr (Example 3); format: cell-based, human; details: 72 hours exposure, highest IC50 of eight lines
Procedure: as §1, §2, §3

HCT-116 cells = experiment: MTS assay cell viability under SN-38 exposure, HCT-116; format: cell-based, human; details: HCT-116, 50 nmol/L SN-38, exposure for 72 hours
Procedure: as §4, §5, §6, §7

[1] = background statement; cited from earlier work

SMILES | IC50 (LS174T) [nM] | cell viability (HT-29 cells) | IC50 (WiDr) [nM] | cell viability (HCT-116 cells) | anti-tumor activity relative to CPT-11 [1] | cytotoxicity [1]
CCc1c2c(nc3ccc(O)cc13)-c1cc3c(c(=O)n1C2)COC(=O)[C@]3(O)CC [SN-38, 7-ethyl-10-hydroxycamptothecin] | 0.71 ± 0.18 | about 85% | 63.3 ± 10.9 | about 35% | about 100 times to some thousand times that of CPT-11 | 
CCc1c2c(nc3ccc(O[C@@H]4O[C@H](C(=O)O)[C@@H](O)[C@H](O)[C@H]4O)cc13)-c1cc3c(c(=O)n1C2)COC(=O)[C@]3(O)CC [SN-38G, SN-38 glucuronate conjugate] |  |  |  |  |  | no cytotoxicity
